Experimental data reported in paper PMC2606674, “Metabolism of no-carrier-added 2-[^18F]fluoro-L-tyrosine in rats” (BMC Medical Physics, 2008).
Where two headings read alike, the source gives them in different places.

Experiments:
[1] = Biodistribution of radioactivity after i.v. injection in awake rats; format: in vivo, rat
Experimental: All animal experiments were approved by the Ethical Committee at our institution. Chronic cannulations of rats (male, Sprague Dawley, 180–250 g) were performed in the abdominal aorta and in the vena cava under general anaesthesia (ketamine 35 mg/kg and medetomidin 0.35 mg/kg) following the procedure described by Lestage. The animals were allowed to recover for a minimum of 4 days before being used for metabolism studies. Most of them were injected with the tracer within the first week after surgery. Some of them were kept up to 4 weeks before injection. Twenty hours before the injection of the tracer, the food was removed from the cage. The arterial line was used for blood sampling and the other for i.v. injection of the tracer. The two lines were flushed with saline a few minutes before use in order to check potency. 14 rats (230–410 g) were injected with 20–325 MBq of n-c-a 2-[^18F]Tyr. The tracer was delivered as a bolus of maximum volume 0.75 ml in 15 s. […]
Radioactivity was measured in weighed fractions of plasma. […] The supernatant was analysed by HPLC. Radioactivity was measured in the organ samples and in one half of the three dissected parts of the brain. […] The supernatant was analysed by HPLC.
Radioactivity measurements of the biological samples and of the fractions collected during HPLC were performed with a NaI counter (Cobra II autogamma, Packard).

cerebral proteins [2] = assay: Incorporation into proteins (TCA precipitation of brain regions) in rats; format: in vivo, rat
Experimental: Chronic cannulations of rats (male, Sprague Dawley, 180–250 g) were performed in the abdominal aorta and in the vena cava under general anaesthesia (ketamine 35 mg/kg and medetomidin 0.35 mg/kg) following the procedure described by Lestage [14]. The animals were allowed to recover for a minimum of 4 days before being used for metabolism studies. Most of them were injected with the tracer within the first week after surgery. Some of them were kept up to 4 weeks before injection. Twenty hours before the injection of the tracer, the food was removed from the cage. The arterial line was used for blood sampling and the other for i.v. injection of the tracer. The two lines were flushed with saline a few minutes before use in order to check potency. 14 rats (230–410 g) were injected with 20–325 MBq of n-c-a 2-[^18F]Tyr. The tracer was delivered as a bolus of maximum volume 0.75 ml in 15 s. Samples of blood were obtained via the arterial cannula during the first minutes after the injection and at different times (15, 30, 45, 60 and/or 90 minutes) thereafter. The line was flushed with saline between each sample to avoid any loss of potency and to ensure the homogeneity of the next sample. The animals (n = number of rats) were sacrificed after 30 (n = 2), 60 (n = 5), 90 (n = 3) or 120 (n = 4) minutes. After the final time point, samples of blood were taken and the major organs were dissected. The brain was dissected to obtain striatum, cortex and cerebellum.
Trichloroacetic acid (TCA) was used to precipitate the proteins from biological samples in order to assay the radioactive content associated with proteins and to perform a chromatographic analysis of the radioactive compounds in solution in the supernatant after centrifugation. The solution used for the precipitation was Na2S2O5 100 mg, NaEDTA.2H2O 10 mg, TCA 20 g, dissolved in water up to 100 ml.
Radioactivity was measured in weighed fractions of plasma. For intermediate and final plasma samples, proteins were precipitated with TCA solution and separated by centrifugation (5°C, 5 minutes, 8000 RPM) before counting. The supernatant was analysed by HPLC. Radioactivity was measured in the organ samples and in one half of the three dissected parts of the brain. The second halves were sonicated with water (Sonics & Materials inc., Vibracell VXC-400). The proteins were precipitated with TCA solution and separated by centrifugation (5°C, 5 minutes, 8000 RPM) before counting. The supernatant was analysed by HPLC.

[3] = design: method as in PMID 2787848; conditions: cited from earlier work
cerebral proteins [4] = test system: cerebral proteins; design: method as in PMID 2787848; conditions: mouse cortex; cited from earlier work

## N[C@@H](Cc1ccc(O)cc1[18F])C(=O)O [2-[^18F]Tyr, 2-[^18F]fluoro-L-tyrosine]
[1]; awake rats, i.v. bolus, n-c-a tracer
  absolute uptake into rat brain tissue: ~ 0.15 %IA/g
[1]; rats, brain uptake already high at 30 minutes post injection
  passage of the blood-brain-barrier: rapidly passes the blood-brain-barrier
Cerebral proteins [2]; rat cerebellum, 60 minutes
  radioactivity associated with proteins, percentage of the total activity in the tissue: 84%
Cerebral proteins [2]; rat cortex, 60 minutes
  radioactivity associated with proteins, percentage of the total activity in the tissue: 85%
Cerebral proteins [2]; rat striatum, 60 min
  radioactivity associated with proteins, percentage of the total activity in the tissue: 66%
Cerebral proteins [2]; rats, non dopaminergic rich regions, 120 minutes
  incorporation into proteins, percentage of the total activity: ~90%
[3]; at 40 min
  absolute uptake into brain tissue, mice: ~ 1.3 %IA/g
[3]; at 60 min
  absolute uptake into brain tissue, mice: ~ 2 %IA/g
Cerebral proteins [4]
  radioactivity associated with proteins, percentage of the total activity in the tissue: 84%
